Legend:
[1] = tested on: Beet Armyworm (Spodoptera exigua, LAPHEG); assay: Bioassay on Beet Armyworm (BAW), 128-well diet tray assay; assay type: in vivo; details: 168 h, 50 μg/cm^2 of test molecule on artificial diet, second instar larvae, 25° C., five to seven days, average of eight wells, read-out: BAW % Control (or Mortality) rating
Protocol: (§1) Certain molecules disclosed in this document were tested against BAW and CL using procedures described in the following examples. In the reporting of the results, the “BAW & CL Rating Table” was used (See Table Section).
Bioassays on BAW were conducted using a 128-well diet tray assay. One to five second instar BAW larvae were placed in each well (3 mL) of the diet tray that had been previously filled with 1 mL of artificial diet to which 50 μg/cm^2 of the test molecule (dissolved in 50 μL of 90:10 acetone-water mixture) had been applied (to each of eight wells) and then allowed to dry. Trays were covered with a clear self-adhesive cover, vented to allow gas exchange, and held at 25° C., 14:10 light-dark for five to seven days. Percent mortality was recorded for the larvae in each well; activity in the eight wells was then averaged. The results are indicated in the table entitled “Table ABC: Biological Results” (See Table Section).

[2] = tested on: Cabbage Looper (Trichoplusia ni, TRIPNI); assay: Bioassay on Cabbage Looper (CL), 128-well diet tray assay; assay type: in vivo; details: 168 h, 50 μg/cm^2 of test molecule on artificial diet, second instar larvae, 25° C., five to seven days, average of eight wells, read-out: CL % Control (or Mortality) rating
Protocol: as §1
Bioassays on CL were conducted using a 128-well diet tray assay. One to five second instar CL larvae were placed in each well (3 mL) of the diet tray that had been previously filled with 1 mL of artificial diet to which 50 μg/cm^2 of the test molecule (dissolved in 50 μL of 90:10 acetone-water mixture) had been applied (to each of eight wells) and then allowed to dry. Trays were covered with a clear self-adhesive cover, vented to allow gas exchange, and held at 25° C., 14:10 light-dark for five to seven days. Percent mortality was recorded for the larvae in each well; activity in the eight wells was then averaged. The results are indicated in the table entitled “Table ABC: Biological Results” (See Table Section).

Row | Compound | mortality at 50 µg/cm2 [1] [%] | mortality at 50 µg/cm2 [2] [%]
1 | Cc1ccc(C(C)C)c(N2C(=O)CS/C2=N\C(=O)NCOc2ccc(-c3ncn(-c4ccc(OC(F)(F)F)cc4)n3)cc2)c1 [Compound F1, (Z)-1-(3-(2-isopropyl-5-methylphenyl)-4-oxothiazolidin-2-ylidene)-3-((4-(1-(4-(trifluoromethoxy)phenyl)-1H-1,2,4-triazol-3-yl)phenoxy)methyl)urea] | 50 to 100 | 50 to 100
2 | COc1ccc(CC(F)(F)F)c(N2C(=O)CS/C2=N\C(=O)NCOc2ccc(-c3ncn(-c4ccc(OC(F)(F)F)cc4)n3)cc2)c1 [Compound F2, (Z)-1-(3-(5-Methoxy-2-(2,2,2-trifluoroethyl)phenyl)-4-oxothiazolidin-2-ylidene)-3-((4-(1-(4-(trifluoromethoxy)phenyl)-1H-1,2,4-triazol-3-yl)phenoxy)methyl)urea] | 50 to 100 | 50 to 100
3 | Cc1ccc(OCC(F)(F)F)c(N2C(=O)CS/C2=N\C(=O)NCOc2ccc(-c3ncn(-c4ccc(OC(F)(F)F)cc4)n3)cc2)c1 [Compound F23, (Z)-1-(3-(5-Methyl-2-(2,2,2-trifluoroethoxy)phenyl)-4-oxothiazolidin-2-ylidene)-3-((4-(1-(4-(trifluoromethoxy)phenyl)-1H-1,2,4-triazol-3-yl)phenoxy)methyl)urea] | 50 to 100 | 50 to 100
4 | Cc1ccc(C(C)C)c(N2C(=O)CS/C2=N\C(=O)NC(C)Oc2ccc(-c3ncn(-c4ccc(OC(F)(F)F)cc4)n3)cc2)c1 (stereo not drawn) [Compound F24, (Z)-1-(3-(2-Isopropyl-5-methylphenyl)-4-oxothiazolidin-2-ylidene)-3-(1-(4-(1-(4-(trifluoromethoxy)phenyl)-1H-1,2,4-triazol-3-yl)phenoxy)ethyl)urea] | 50 to 100 | 50 to 100
5 | CCOc1ccccc1N1C(=O)CS/C1=N\C(=O)NCOc1ccc(-c2ncn(-c3ccc(OC(F)(F)F)cc3)n2)cc1 [Compound F25, (Z)-1-(3-(2-Ethoxyphenyl)-4-oxothiazolidin-2-ylidene)-3-((4-(1-(4-(trifluoromethoxy)phenyl)-1H-1,2,4-triazol-3-yl)phenoxy)methyl)urea] | 50 to 100 | 50 to 100
6 | COC(=O)c1ccc(N2C(=O)CS/C2=N\C(=O)NCOc2ccc(-c3ncn(-c4ccc(OC(F)(F)F)cc4)n3)cc2)c(C)c1 [Compound F26, Methyl (Z)-3-methyl-4-(4-oxo-2-((((4-(1-(4-(trifluoromethoxy)phenyl)-1H-1,2,4-triazol-3-yl)phenoxy)methyl)carbamoyl)imino)thiazolidin-3-yl)benzoate] | 0 | 50 to 100
7 | O=C(/N=C1\SCC(=O)N1c1cccc2c1CCCC2)NCOc1ccc(-c2ncn(-c3ccc(OC(F)(F)F)cc3)n2)cc1 [Compound F27, (Z)-1-(4-Oxo-3-(5,6,7,8-tetrahydronaphthalen-1-yl)thiazolidin-2-ylidene)-3-((4-(1-(4-(trifluoromethoxy)phenyl)-1H-1,2,4-triazol-3-yl)phenoxy)methyl)urea] | 50 to 100 | 50 to 100
8 | CCCCc1ccccc1N1C(=O)CS/C1=N\C(=O)NCOc1ccc(-c2ncn(-c3ccc(OC(F)(F)F)cc3)n2)cc1 [Compound F28, (Z)-1-(3-(2-Butylphenyl)-4-oxothiazolidin-2-ylidene)-3-((4-(1-(4-(trifluoromethoxy)phenyl)-1H-1,2,4-triazol-3-yl)phenoxy)methyl)urea] | 0 | 0 to 50
9 | Cc1ccc(F)c(N2C(=O)CS/C2=N\C(=O)NCOc2ccc(-c3ncn(-c4ccc(OC(F)(F)F)cc4)n3)cc2)c1 [Compound F29, (Z)-1-(3-(2-Fluoro-5-methylphenyl)-4-oxothiazolidin-2-ylidene)-3-((4-(1-(4-(trifluoromethoxy)phenyl)-1H-1,2,4-triazol-3-yl)phenoxy)methyl)urea] | 50 to 100 | 50 to 100
10 | CCc1cccc(C)c1N1C(=O)CS/C1=N\C(=O)NCOc1ccc(-c2ncn(-c3ccc(OC(F)(F)F)cc3)n2)cc1 [Compound F30, (Z)-1-(3-(2-Ethyl-6-methylphenyl)-4-oxothiazolidin-2-ylidene)-3-((4-(1-(4-(trifluoromethoxy)phenyl)-1H-1,2,4-triazol-3-yl)phenoxy)methyl)urea] | 50 to 100 | 50 to 100
11 | CSC(C)c1ccccc1N1C(=O)CS/C1=N\C(=O)NCOc1ccc(-c2ncn(-c3ccc(OC(F)(F)F)cc3)n2)cc1 (stereo not drawn) [Compound F31, (Z)-1-(3-(2-(1-(methylthio)ethyl)phenyl)-4-oxothiazolidin-2-ylidene)-3-((4-(1-(4-(trifluoromethoxy)phenyl)-1H-1,2,4-triazol-3-yl)phenoxy)methyl)urea] | 50 to 100 | 50 to 100
12 | COc1ccc(N2C(=O)CS/C2=N\C(=O)NCOc2ccc(-c3ncn(-c4ccc(OC(F)(F)F)cc4)n3)cc2)c(C)c1 [Compound F32, (Z)-1-(3-(4-Methoxy-2-methylphenyl)-4-oxothiazolidin-2-ylidene)-3-((4-(1-(4-(trifluoromethoxy)phenyl)-1H-1,2,4-triazol-3-yl)phenoxy)methyl)urea] | 50 to 100 | 50 to 100

From US11399540B2, “Molecules having pesticidal utility, and intermediates, compositions, and processes, related thereto” (CORTEVA AGRISCIENCE LLC, priority 2017, dated 2022)
